This experiment has as its target GLP1R receptor (Homo sapiens, UniProt P43220). Description: cAMP assay: intracellular cAMP detected by TR-FRET. The experiment is classed as cell-based. The settings on record: cells incubated with compound at 37° C. for 30 min, maximum concentration 12 μM. Here is the method: Intracellular cAMP concentration was detected by TR-FRET method to evaluate the activity of drug-induced GLP1R receptor. The cells were prepared in an experimental buffer solution (HBSS, 20 mM HEPES (pH 7.5), 0.1% BSA, 500 μM IBMX) and inoculated into 384 cell culture plates with a inoculated density of 2000 cells and a inoculated volume of 15 μL per well. The compound was diluted by 3 times gradient with DMSO, 10 concentration gradients, and the 10 concentration gradients were diluted by 100 times in Buffer. The maximum concentration point of compound to be tested was 12 μM. The inoculated 384 cell plates were added with 5 μL prepared working solution and incubated at 37° C. for 30 min. Eu-cAMP tracer was diluted 50 times and Ulight-anti-cAMP 150 times by detection buffer (cAMP Kit, Perkin Elmer, cat #TRF0263). At first, 10 μL Eu-cAMP tracer was added to each experimental well, and then 10 μL Uligh-anti-cAMP was added to each experimental well. Centrifuged the assay plate at 200 g, RT, for 30 s, incubated it at 25° C. for 1 h. Collected the data by Envision 2105 microplate reader with a HTRF module. Excitation: 340 nm; emission: 665 nm and 615 nm.
The activation rate of each concentration of the tested compound to the positive drug was calculated by the formula % Activity=100 (SignalcmpdSignalAve_PC)/(SignalAve_VCSignalAve_PC)×100, EC50 values and nonlinear regression curve fits were obtained using GraphPad Prism software.
A general note: cAMP levels reflect the balance of adenylyl cyclase and phosphodiesterase activity.

In general, EC50 refers to the concentration that produces a half-maximal response.

Chain of GLP1R receptor (P43220 24-463): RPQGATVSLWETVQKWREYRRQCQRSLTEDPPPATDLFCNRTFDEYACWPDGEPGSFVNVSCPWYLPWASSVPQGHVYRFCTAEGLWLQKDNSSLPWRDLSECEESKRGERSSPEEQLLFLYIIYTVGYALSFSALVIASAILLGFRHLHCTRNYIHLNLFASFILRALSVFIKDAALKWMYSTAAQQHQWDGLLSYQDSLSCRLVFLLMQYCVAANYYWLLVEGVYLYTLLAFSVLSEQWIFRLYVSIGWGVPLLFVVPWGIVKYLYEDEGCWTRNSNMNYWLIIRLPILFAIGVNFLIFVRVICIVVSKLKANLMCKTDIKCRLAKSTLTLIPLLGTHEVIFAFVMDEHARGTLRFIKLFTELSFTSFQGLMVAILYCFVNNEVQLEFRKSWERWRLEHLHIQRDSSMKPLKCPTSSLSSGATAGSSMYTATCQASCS

Regarding `Cc1cc(-n2nc3c(c2-n2ccn(-c4ccc5c(cnn5C)c4F)c2=O)[C@H](C)N(C(=O)c2sc4cc(C5CCOC(C)(C)C5)ccc4c2C2(c4noc(=O)[nH]4)C[C@@H]2C)CC3)cc(C)c1F` (some centres unmarked) [Example 3], the EC50 was 0.406 nM.

For the compound `Cc1cc(-n2nc3c(c2N2C(=O)N(c4ccc5c(cnn5C)c4F)C4CC42)[C@H](C)N(C(=O)c2cc4cc([C@H]5CCOC(C)(C)C5)ccc4n2[C@@]2(c4noc(=O)[nH]4)C[C@@H]2C)CC3)cc(C)c1F` (stereo partly drawn) [Example 6, 3-((1S,2S)-1-(5-((S)-2,2-dimethyltetrahydro-2H-pyran-4-yl)-2-((4S)-3-(4-(4-fluoro-1-methyl-1H-indazol-5-yl)-3-oxo-2,4-diazabicyclo[3.1.0]hexan-2-yl)-2-(4-fluoro-3,5-dimethylphenyl)-4-methyl-4,5,6,7-tetrahydro-2H-pyrazolo[4,3-c]pyridine-5-carbonyl)-1H-indol-1-yl)-2-methylcyclopropyl)-1,2,4-oxadiazol-5(4H)-one], the EC50 came to 0.087 nM.

As for `Cc1cc(-n2nc3c(c2-n2ccn(-c4ccc5c(cnn5C)c4F)c2=O)[C@H](C)N(C(=O)c2sc4nc(C5CCOC(C)(C)C5)ccc4c2C2(c4noc(=O)[nH]4)C[C@@H]2C)CC3)cc(C)c1F` (stereo partly drawn) [Example 29, 3-((2S)-1-(6-(2,2-dimethyl-tetrahydro-2H-pyran-4-yl)-2-((S)-3-(3-(4-fluoro-1-methyl-1H-indazol-5-yl)-2-oxo-2,3-dihydro-1H-imidazol-1-yl)-2-(4-fluoro-3,5-dimethyl-phenyl)-4-methyl-4,5,6,7-tetrahydro-2H-pyrazolo[4,3-c]pyridine-5-carbonyl)thieno [2,3-b]pyridin-3-yl)-2-methylcyclopropyl)-1,2,4-oxadiazol-5(4H)-one], the 50% effective concentration (EC50) worked out at 0.093 nM.

Turning to `Cc1cc(-n2nc3c(c2-n2ccn(-c4ccc5c(cnn5C)c4F)c2=O)[C@H](C)N(C(=O)c2sc4cc(C5CCOC(C)(C)C5)cnc4c2C2(c4noc(=O)[nH]4)C[C@@H]2C)CC3)cc(C)c1F` (stereo partly drawn) [Example 30, 3-((2S)-1-(6-(2,2-dimethyl-tetrahydro-2H-pyran-4-yl)-2-((S)-3-(3-(4-fluoro-1-methyl-1H-indazol-5-yl)-2-oxo-2,3-dihydro-1H-imidazol-1-yl)-2-(4-fluoro-3,5-dimethylphenyl)-4-methyl-4,5,6,7-tetrahydro-2H-pyrazolo[4,3-c]pyridine-5-carbonyl)thieno[3,2-b]pyridin-3-yl)-2-methyl-cyclopropyl)-1,2,4-oxadiazol-5(4H)-one], the EC50 came out at 0.044 nM.

Consider `Cc1cc(-n2nc3c(c2-n2ccn(-c4ccc5c(cnn5C)c4F)c2=O)[C@H](C)N(C(=O)c2oc4cc(C5CCOC(C)(C)C5)ncc4c2C2(c4noc(=O)[nH]4)C[C@@H]2C)CC3)cc(C)c1F` (stereo partly drawn) [Example 31, 3-((2S)-1-(6-(2,2-dimethyl-tetrahydro-2H-pyran-4-yl)-2-((S)-3-(3-(4-fluoro-1-methyl-1H-indazol-5-yl)-2-oxo-2,3-dihydro-1H-imidazol-1-yl)-2-(4-fluoro-3,5-dimethylphenyl)-4-methyl-4,5,6,7-tetrahydro-2H-pyrazolo[4,3-c]pyridine-5-carbonyl)furo[3,2-c]pyridin-3-yl)-2-methyl-cyclopropyl)-1,2,4-oxadiazol-5(4H)-one], for which the EC50 is 0.182 nM.

The record behind these values is patent publication US20260217707A1, “GLP-1R AGONISTS AND USES THEREOF” (Fochon Biosciences, Ltd., priority 2023, published 2026).
